Our source for the TGI % and IC50 values is patent US20200317660A1, “Quinazolinone Compound and Application Thereof” (LUOXIN PHARMACEUTICAL (SHANGHAI) CO., LTD., priority 2017, published 2020).

The structures appear in SMILES notation.

Assay [1] concerns human breast cancer BT-474 cells. Briefly: Subcutaneous xenograft tumor model of human breast cancer BT-474 cells. It counts as in vivo, BALB/c nude mouse. To be noted: BT-474 xenograft, 30 mpk. Here is the method:
2. In vivo drug-efficacy study
(1) BALB/c nude mouse subcutaneous xenograft tumor model of human breast cancer BT-474 cells
Human breast cancer BT-474 cells (ATCC, Manassas, Va., batch number: HTB-20) were subjected to in vitro monolayer culture, and the culture conditions were: Hybri-Care medium with 10% fetal bovine serum and 1% double antibody, 37° C. and 5% CO2 incubator. The cells were passaged by digestion with trypsin-EDTA twice a week. When the cells saturation reached 80-90%, and the quantity met the requirement, the cells was collected, counted and inoculated.
Tumor cell inoculation (tumor inoculation)
The subcutaneous implantation of the estrogen tablets (Innovative Research, Cat # SE-121, 0.36 mg/60-day release) was carried out one day before cell inoculation. 0.2 mL […] of BT-474 cells (with matrigel, volume 1:1) was subcutaneously inoculated into the right back of each mouse. When the average tumor volume reached 188 mm^3, the administration was started in groups.
Preparation of Test Substance […]
The experimental index was to evaluate whether the tumor growth was inhibited, delayed or cured. The diameter of the tumor was measured with a vernier caliper twice a week. […]
The antitumor efficacy of the compound was evaluated by TGI (%) or relative tumor proliferation rate T/C (%). […]
(In xenograft studies the graft and the host belong to different species.)

Assay [2] addresses T1, PI3Kα (Homo sapiens, UniProt P42336).
T1 construct: purchased Millipore 14-602-K
Briefly: In vitro test of enzyme activity (ADP-Glo lipokinase), PI3K alpha. The conditions noted are these: 40 μM ATP, 50 μM PIP2:3PS, 120 min. It counts as biochemical. Background: ADP-Glo first removes unused ATP, then detects ADP through luciferase.

The target of assay [3] is T2, PI3Kβ (Homo sapiens, UniProt P42338).
T2 construct: purchased Promega V1751
Briefly: In vitro test of enzyme activity (ADP-Glo lipokinase), PI3K beta. It counts as biochemical. To be noted: 40 μM ATP, 50 μM PIP2:3PS, 120 min.

In assay [4] the test system is phosphorylation of PI3K downstream protein Akt in MCF7 cells. Briefly: In vitro test of cells activity: ELISA of Akt phosphorylation in MCF7 cells. To be noted: 2 h compound, insulin 10 μg/mL stimulation, pAkt ELISA, read-out: MCF7 Cell IC50. The assay is classed as cell-based. An outline of the steps: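 MCF7 cells were serum-starved overnight, exposed to 10-point three-fold compound dilutions for 2 h at 37°C, then stimulated with 10 μg/mL insulin for 30 min. Lysates were assayed for phospho-Akt by ELISA.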

Assay [5] has as its target T3, PI3Kγ (Homo sapiens, UniProt P48736).
T3 construct: purchased Millipore 14-558-K
Kind of assay: In vitro test of enzyme activity (ADP-Glo lipokinase), PI3K gamma. The assay is classed as biochemical. To be noted: 25 μM ATP, 50 μM PIP2:3PS, 120 min.

The target of assay [6] is T4, PI3Kδ (Homo sapiens, UniProt O00329).
T4 construct: purchased Millipore 14-604-K
Briefly: In vitro test of enzyme activity (ADP-Glo lipokinase), PI3K delta. It counts as biochemical. To be noted: 40 μM ATP, 50 μM PIP2:3PS, 120 min.

One may read the IC50 as the concentration at which inhibition is half-maximal.

T1 sequence (P42336 whole entry): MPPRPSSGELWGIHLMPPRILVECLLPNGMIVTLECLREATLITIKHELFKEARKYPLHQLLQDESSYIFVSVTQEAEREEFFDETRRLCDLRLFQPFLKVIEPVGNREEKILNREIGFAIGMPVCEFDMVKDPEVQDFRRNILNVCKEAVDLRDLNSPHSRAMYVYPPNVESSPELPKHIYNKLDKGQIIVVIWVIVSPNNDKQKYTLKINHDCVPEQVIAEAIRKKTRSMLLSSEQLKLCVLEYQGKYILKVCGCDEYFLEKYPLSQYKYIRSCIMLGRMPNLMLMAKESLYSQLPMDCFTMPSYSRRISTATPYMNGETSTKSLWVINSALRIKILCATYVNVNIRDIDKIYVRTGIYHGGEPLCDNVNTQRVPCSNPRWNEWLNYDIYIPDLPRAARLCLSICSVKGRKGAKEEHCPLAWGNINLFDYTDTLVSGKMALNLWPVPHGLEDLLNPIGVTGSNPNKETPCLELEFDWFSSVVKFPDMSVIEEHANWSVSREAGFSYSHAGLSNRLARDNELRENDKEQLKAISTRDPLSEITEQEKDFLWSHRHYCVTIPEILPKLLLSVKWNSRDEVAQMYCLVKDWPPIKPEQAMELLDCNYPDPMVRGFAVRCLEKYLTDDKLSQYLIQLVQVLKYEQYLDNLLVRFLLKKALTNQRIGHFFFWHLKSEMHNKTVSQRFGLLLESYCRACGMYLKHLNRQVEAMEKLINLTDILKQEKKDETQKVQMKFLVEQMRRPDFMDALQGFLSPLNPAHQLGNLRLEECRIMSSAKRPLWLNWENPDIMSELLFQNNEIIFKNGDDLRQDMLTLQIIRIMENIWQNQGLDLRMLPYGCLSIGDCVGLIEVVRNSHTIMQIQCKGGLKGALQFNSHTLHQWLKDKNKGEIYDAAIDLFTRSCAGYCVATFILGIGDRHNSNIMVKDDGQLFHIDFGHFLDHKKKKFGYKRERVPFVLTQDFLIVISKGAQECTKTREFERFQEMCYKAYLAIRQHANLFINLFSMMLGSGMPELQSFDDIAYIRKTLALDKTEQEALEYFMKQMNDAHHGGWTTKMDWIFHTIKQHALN
T1 sequence (P27986 whole entry partner): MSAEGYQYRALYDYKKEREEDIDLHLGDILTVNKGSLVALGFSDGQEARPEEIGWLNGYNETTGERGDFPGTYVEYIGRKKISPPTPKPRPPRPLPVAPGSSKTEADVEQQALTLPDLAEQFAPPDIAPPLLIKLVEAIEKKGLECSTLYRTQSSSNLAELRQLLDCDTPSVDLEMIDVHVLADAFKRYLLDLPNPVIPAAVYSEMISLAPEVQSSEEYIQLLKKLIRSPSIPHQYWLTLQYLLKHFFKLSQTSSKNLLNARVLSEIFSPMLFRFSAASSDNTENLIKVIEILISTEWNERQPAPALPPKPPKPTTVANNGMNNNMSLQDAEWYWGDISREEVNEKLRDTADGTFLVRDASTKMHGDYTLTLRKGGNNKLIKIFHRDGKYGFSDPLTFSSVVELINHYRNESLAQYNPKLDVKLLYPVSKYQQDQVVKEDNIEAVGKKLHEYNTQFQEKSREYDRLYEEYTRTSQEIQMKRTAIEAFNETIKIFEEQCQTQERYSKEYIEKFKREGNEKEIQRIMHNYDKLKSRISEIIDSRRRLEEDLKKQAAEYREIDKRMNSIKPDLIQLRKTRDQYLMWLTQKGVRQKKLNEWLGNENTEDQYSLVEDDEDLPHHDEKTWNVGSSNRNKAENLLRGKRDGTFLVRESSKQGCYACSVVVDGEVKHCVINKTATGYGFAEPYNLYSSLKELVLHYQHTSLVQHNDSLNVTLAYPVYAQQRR
T3 sequence (P48736 whole entry): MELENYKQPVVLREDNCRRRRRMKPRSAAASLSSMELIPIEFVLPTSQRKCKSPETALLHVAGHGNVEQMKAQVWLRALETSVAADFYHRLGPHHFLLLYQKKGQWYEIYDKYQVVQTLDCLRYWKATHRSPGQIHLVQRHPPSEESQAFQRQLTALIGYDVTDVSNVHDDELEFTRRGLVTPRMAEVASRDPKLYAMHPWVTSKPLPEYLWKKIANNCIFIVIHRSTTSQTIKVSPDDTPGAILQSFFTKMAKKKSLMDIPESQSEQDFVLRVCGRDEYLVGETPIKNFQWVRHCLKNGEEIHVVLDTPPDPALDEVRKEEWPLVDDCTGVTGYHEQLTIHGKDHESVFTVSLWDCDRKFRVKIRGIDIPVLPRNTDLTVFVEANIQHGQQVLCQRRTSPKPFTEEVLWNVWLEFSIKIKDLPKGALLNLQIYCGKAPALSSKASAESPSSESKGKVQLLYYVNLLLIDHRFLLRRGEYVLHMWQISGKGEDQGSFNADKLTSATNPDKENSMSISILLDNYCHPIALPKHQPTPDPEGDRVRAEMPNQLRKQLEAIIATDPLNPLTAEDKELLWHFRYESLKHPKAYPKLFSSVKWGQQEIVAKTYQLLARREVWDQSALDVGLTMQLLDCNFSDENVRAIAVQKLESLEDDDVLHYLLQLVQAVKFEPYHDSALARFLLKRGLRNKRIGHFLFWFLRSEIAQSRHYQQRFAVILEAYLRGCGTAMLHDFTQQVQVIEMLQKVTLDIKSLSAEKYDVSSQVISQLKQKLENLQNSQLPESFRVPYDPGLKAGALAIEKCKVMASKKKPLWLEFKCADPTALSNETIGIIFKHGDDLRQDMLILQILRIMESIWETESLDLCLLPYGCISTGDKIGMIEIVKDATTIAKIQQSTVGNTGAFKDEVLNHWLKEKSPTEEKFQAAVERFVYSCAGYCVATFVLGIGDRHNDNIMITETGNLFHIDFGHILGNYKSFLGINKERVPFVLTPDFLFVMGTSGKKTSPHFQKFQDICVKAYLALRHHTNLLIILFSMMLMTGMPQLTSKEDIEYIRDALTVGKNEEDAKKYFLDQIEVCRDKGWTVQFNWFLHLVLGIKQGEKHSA
T2 sequence (P42338 whole entry): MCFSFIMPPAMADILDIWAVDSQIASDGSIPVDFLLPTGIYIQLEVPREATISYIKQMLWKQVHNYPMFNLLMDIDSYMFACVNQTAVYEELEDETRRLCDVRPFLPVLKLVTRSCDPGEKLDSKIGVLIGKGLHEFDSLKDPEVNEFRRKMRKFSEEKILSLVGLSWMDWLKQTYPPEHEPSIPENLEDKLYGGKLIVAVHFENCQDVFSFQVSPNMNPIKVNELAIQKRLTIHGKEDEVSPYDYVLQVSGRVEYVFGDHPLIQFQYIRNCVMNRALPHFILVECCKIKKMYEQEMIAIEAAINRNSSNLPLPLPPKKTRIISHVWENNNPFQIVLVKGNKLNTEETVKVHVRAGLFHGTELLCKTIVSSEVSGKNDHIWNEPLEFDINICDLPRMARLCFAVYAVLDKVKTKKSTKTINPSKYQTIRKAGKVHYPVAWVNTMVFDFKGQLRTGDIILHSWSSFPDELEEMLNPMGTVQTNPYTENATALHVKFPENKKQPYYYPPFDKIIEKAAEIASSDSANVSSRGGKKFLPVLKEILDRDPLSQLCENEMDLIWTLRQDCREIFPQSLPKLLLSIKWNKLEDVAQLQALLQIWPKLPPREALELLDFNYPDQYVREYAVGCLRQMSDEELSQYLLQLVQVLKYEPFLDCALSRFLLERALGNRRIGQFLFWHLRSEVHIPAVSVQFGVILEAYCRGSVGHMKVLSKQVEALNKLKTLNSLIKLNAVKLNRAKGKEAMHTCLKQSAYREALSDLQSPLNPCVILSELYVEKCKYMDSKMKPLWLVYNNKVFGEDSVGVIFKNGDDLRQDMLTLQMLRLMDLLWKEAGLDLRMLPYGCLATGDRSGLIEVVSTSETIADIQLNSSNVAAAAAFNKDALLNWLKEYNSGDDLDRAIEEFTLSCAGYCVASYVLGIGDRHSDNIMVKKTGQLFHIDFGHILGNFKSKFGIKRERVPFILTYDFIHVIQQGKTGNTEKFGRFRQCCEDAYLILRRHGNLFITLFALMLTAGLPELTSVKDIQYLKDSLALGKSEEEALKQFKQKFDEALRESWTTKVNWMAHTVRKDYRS
T2 sequence (P27986 whole entry partner): as the sequence (P27986 whole entry partner) above
T4 sequence (O00329 whole entry): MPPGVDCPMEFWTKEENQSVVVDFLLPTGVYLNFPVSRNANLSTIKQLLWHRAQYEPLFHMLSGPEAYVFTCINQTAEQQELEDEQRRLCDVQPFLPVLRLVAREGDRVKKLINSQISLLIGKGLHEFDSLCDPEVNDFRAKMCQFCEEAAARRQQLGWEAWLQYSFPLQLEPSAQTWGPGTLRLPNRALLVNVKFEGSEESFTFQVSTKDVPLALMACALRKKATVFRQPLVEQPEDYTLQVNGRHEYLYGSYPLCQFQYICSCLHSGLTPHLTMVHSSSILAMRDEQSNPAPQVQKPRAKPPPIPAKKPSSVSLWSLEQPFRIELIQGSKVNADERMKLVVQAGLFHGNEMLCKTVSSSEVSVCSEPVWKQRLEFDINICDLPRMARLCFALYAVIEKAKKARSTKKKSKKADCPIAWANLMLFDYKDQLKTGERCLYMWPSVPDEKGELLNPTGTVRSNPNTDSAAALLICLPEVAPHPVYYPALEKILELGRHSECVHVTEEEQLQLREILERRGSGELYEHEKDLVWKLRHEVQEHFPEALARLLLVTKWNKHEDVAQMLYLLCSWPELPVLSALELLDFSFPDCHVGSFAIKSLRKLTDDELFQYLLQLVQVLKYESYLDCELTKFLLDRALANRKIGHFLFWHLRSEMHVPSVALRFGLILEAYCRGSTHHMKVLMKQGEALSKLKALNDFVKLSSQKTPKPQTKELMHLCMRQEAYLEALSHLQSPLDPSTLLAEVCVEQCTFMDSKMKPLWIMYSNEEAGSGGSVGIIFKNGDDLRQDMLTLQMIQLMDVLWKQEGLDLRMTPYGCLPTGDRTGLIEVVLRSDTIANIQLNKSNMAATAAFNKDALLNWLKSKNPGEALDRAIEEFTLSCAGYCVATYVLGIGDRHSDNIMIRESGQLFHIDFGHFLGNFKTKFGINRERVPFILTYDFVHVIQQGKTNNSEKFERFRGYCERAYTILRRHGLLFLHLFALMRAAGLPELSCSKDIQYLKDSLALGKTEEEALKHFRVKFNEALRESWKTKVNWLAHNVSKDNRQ
T4 sequence (P27986 whole entry partner): as the sequence (P27986 whole entry partner) above

In assay [1], `COc1ncc(-c2ccc3ncn(CC(C)C(=O)NCC(F)(F)F)c(=O)c3c2)cc1NS(=O)(=O)c1ccc(F)cc1Cl` (single isomer, unassigned) [WX058] showed a TGI % of 60.0%. Moreover, the IC50 in assay [2] came out at 5.49 nM; in assay [3], 589 nM; in assay [4] it was 56.1 nM; in assay [5], 54.2 nM; in assay [6], 18.7 nM.
